Data on eleven compounds can be found in paper PMC9500974, “Ultrasonic-Assisted Synthesis of Benzofuran Appended Oxadiazole Molecules as Tyrosinase Inhibitors: Mechanistic Approach through Enzyme Inhibition, Molecular Docking, Chemoinformatics, ADMET and Drug-Likeness Studies” (International Journal of Molecular Sciences, 2022).

The assay deals with bacterial tyrosinase (indigenously isolated from Bacillus subtilis NCTC 10400). Description: Tyrosinase inhibition assay (dopachrome formation, OD 475 nm). The assay is classed as biochemical. To be noted: L-tyrosine substrate, 25 °C, triplicates, mean ± SD. The procedure:
The target derivatives were evaluated against tyrosinase enzyme (indigenously isolated from Bacillus subtilis NCTC 10400) inhibition. […] Structure-activity relationship (SAR) studies indicate that overall substituent-related tyrosinase activity decreases in the following way: 2-flouro > 2-chloro > 3,4-dichloro > 4-fluoro > 3,4-dimethyl > 2-methoxy > phenyl > 2,4-dimethyl > 2,5-dimethoxy > diethyl.
The bacterial tyrosinase enzyme isolation and preparation were fully described in our previously published paper and in other reported literature. A novel synthesized series of oxadiazole-based furan molecules were screened for anti-tyrosinase activity. Tyrosinase inhibition was investigated by modifying the reported methods of Kim. Briefly, phosphate buffer (0.05 M), L-tyrosine (765 µL; 2 mM) and tested compounds (35 µL) were incubated at ambient temperature for 10 min then bacterial tyrosinase (200 µL; about 48 U/mL) was added and the whole assay solution was allowed to stand at 25 °C for 2 min. The formation of dopachrome was monitored after incubation (2 min) by measuring the increase in optical density (OD) at λmax 475 nm. The stock solution for the entire synthesized series of oxadiazole-based furan moieties (1 mM) was prepared in DMSO (dimethyl sulfoxide). Five different dilutions of each oxadiazole-based furan moiety was prepared. Ascorbic acid (1 mM) was utilized for the standard tyrosinase inhibitor, and the values were expressed as IC50, the concentration of tested samples which caused the 50% inhibition. The percentage (%) of bacterial tyrosinase inhibitory activity was determine by utilizing the formula:(2) % Inhibition=A−BA×100
Here, A represents control enzyme, i.e., without inhibitor, while B represented the test sample, i.e., inhibitor.
The Prism software was used to analyze statistical data, while the results were measured in triplicates and depicted as mean ± SD.
Regarding `O=C1O[C@H]([C@@H](O)CO)C(O)=C1O` [Ascorbic acid, reference compound], the IC50 – broadly, the midpoint of a concentration-inhibition curve – came to 11.5 ± 1 µM.
The result for `O=C(CSc1nnc(-c2cc3cc(Br)ccc3o2)o1)Nc1ccccc1F` [Compound 5a, 2-((5-(5-Bromobenzofuran-2-yl)-1,3,4-oxadiazol-2-yl)thio)-N-(2-fluorophenyl)acetamide] reads 11 ± 0.25 µM; that for `O=C(CSc1nnc(-c2cc3cc(Br)ccc3o2)o1)Nc1ccccc1Cl` [Compound 5b, 2-((5-(5-Bromobenzofuran-2-yl)-1,3,4-oxadiazol-2-yl)thio)-N-(2-chlorophenyl)acetamide], 12.4 µM; that for `O=C(CSc1nnc(-c2cc3cc(Br)ccc3o2)o1)Nc1ccc(Cl)c(Cl)c1` [Compound 5c, 2-((5-(5-Bromobenzofuran-2-yl)-1,3,4-oxadiazol-2-yl)thio)-N-(3,4-dichlorophenyl)acetamide], 12.7 µM.
With `O=C(CSc1nnc(-c2cc3cc(Br)ccc3o2)o1)Nc1ccc(F)cc1` [Compound 5d, 2-((5-(5-Bromobenzofuran-2-yl)-1,3,4-oxadiazol-2-yl)thio)-N-(4-fluorophenyl)acetamide] the figure was 15.5 µM; with `Cc1ccc(NC(=O)CSc2nnc(-c3cc4cc(Br)ccc4o3)o2)cc1C` [Compound 5e, 2-((5-(5-Bromobenzofuran-2-yl)-1,3,4-oxadiazol-2-yl)thio)-N-(3,4-dimethylphenyl)acetamide], 25 ± 0.75 µM.
`COc1ccccc1NC(=O)CSc1nnc(-c2cc3cc(Br)ccc3o2)o1` [Compound 5f, 2-((5-(5-Bromobenzofuran-2-yl)-1,3,4-oxadiazol-2-yl)thio)-N-(2-methoxyphenyl)acetamide] registered an IC50 of 27 ± 1 µM.
The result for `O=C(CSc1nnc(-c2cc3cc(Br)ccc3o2)o1)Nc1ccccc1` [Compound 5g, 2-((5-(5-Bromobenzofuran-2-yl)-1,3,4-oxadiazol-2-yl)thio)-N-phenylacetamide] reads 30 ± 1.5 µM.
`Cc1ccc(NC(=O)CSc2nnc(-c3cc4cc(Br)ccc4o3)o2)c(C)c1` [Compound 5h, 2-((5-(5-Bromobenzofuran-2-yl)-1,3,4-oxadiazol-2-yl)thio)-N-(2,4-dimethylphenyl)acetamide] returned an IC50 of 36 ± 0.25 µM.
With `COc1ccc(OC)c(NC(=O)CSc2nnc(-c3cc4cc(Br)ccc4o3)o2)c1` [Compound 5i, 2-((5-(5-Bromobenzofuran-2-yl)-1,3,4-oxadiazol-2-yl)thio)-N-(2,5-dimethoxyphenyl)acetamide] the figure was 48 ± 0.96 µM.
For `CCN(CC)C(=O)CSc1nnc(-c2cc3ccccc3o2)o1` [Compound 5j], the IC50 stood at 49.5 ± 0.92 µM.
